Source: PMC7377239, “Cardiovascular Effects of Polychlorinated Biphenyls and Their Major Metabolites” (Environmental Health Perspectives, 2020)
Like-named read-outs stand apart in the source and are kept apart here.

Tests used:
[1] = test system: iCell cardiomyocytes (human iPSC-derived cardiomyocytes); assay: High-content imaging of cytotoxicity and mitochondrial integrity in iPSC-CMs; assay type: cell-based; settings: Homo sapiens, Cardiomyocyte; for viability at 0.01 µM / activity at 0.01 µM / viability at 0.1 µM / activity at 0.1 µM / viability at 1 µM / activity at 1 µM / viability at 10 µM / activity at 10 µM / viability at 100 µM / activity at 100 µM: 0.00 µM = 100.00; for viability at 0.1 µM / activity at 0.1 µM: 0.10 µM
Summary of the method: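 Cardiomyocytes grown on gelatinized 384-well plates received fresh medium on the experiment day and were then exposed to chemicals at 0.01–100μM. Nuclei and mitochondria were labeled with Hoechst 33342 and MitoTracker™ Orange, then fixed, and imaged on an ImageXpress® Micro Confocal system. Four-parameter logistic concentration–response fits in R, with a one-standard-deviation vehicle cutoff, gave point-of-departure values.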

HUVECs = assay: High-content imaging cytotoxicity in HUVECs, 24 h; assay type: cell-based, human; settings: Homo sapiens, HUVEC, 24 h, HUVECs; for viability at 0.01 µM / activity at 0.01 µM: concentration 0.01 µM; for viability at 0.01 µM / activity at 0.01 µM / viability at 0.1 µM / activity at 0.1 µM / viability at 1 µM / activity at 1 µM / viability at 10 µM / activity at 10 µM / viability at 100 µM / activity at 100 µM: 0.00 µM = 100.00; for viability at 0.1 µM / activity at 0.1 µM: concentration 0.10 µM; for viability at 1 µM / activity at 1 µM: concentration 1.00 µM; for viability at 10 µM / activity at 10 µM: concentration 10.00 µM; for viability at 100 µM / activity at 100 µM: concentration 100.00 µM; for minimal effective concentration: MAX 100.00
Summary of the method: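 Read-out: multiwavelength high-content imaging of Hoechst 33342, MitoTracker Orange and calcein AM after 24 h compound exposure of confluent HUVEC monolayers. POD values were set using a one-SD cutoff from vehicle (0.5% DMSO) means; with no concentration–response, 100μM was assigned as no observable adverse effect level.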

[2] = 1.5 h, 90min, read-out: cm.cam.90min
[3] = 1.5 h, 90min, read-out: cm.mii.90min
[4] = 1.5 h, 90min, read-out: cm.mito.90min
[5] = 1.5 h, 90min, read-out: cm.tc.90min
[6] = 24 h, 24hrs, read-out: cm.cam.24hrs
[7] = 24 h, 24hrs, read-out: cm.mii.24hrs
[8] = 24 h, 24hrs, read-out: cm.mito.24hrs
[9] = 24 h, 24hrs, read-out: cm.tc.24hrs
[10] = 24 hr, read-out: huvec.cyto.24hr
[11] = 24 hr, read-out: huvec.mito.24hr
[12] = 24 hr, read-out: huvec.mitoint.24hr
[13] = 24 hr, read-out: huvec.nma.24hr
[14] = 24 hrs, read-out: huvec.tc.24hrs

COc1cc(Cl)c(-c2cc(Cl)ccc2Cl)cc1Cl [4-OMe PCB52]
viability at 0.01 µM [1, 2]: 94.3%
activity at 0.01 µM [1, 3]: 101%
activity at 0.01 µM [1, 4]: 94.1%
viability at 0.01 µM [1, 5]: 94.2%
viability at 0.1 µM [1, 2]: 98.7%
activity at 0.1 µM [1, 3]: 90.9%
activity at 0.1 µM [1, 4]: 98.7%
viability at 0.1 µM [1, 5]: 98.8%
viability at 1 µM [1, 2]: 101%
activity at 1 µM [1, 3]: 95.2%
activity at 1 µM [1, 4]: 101%
viability at 1 µM [1, 5]: 101%
viability at 10 µM [1, 2]: 100%
activity at 10 µM [1, 3]: 108%
activity at 10 µM [1, 4]: 99.8%
viability at 10 µM [1, 5]: 100%
viability at 100 µM [1, 2]: 0.37%
activity at 100 µM [1, 3]: 69.6%
activity at 100 µM [1, 4]: 0.37%
viability at 100 µM [1, 5]: 0.46%
minimal effective concentration ([1]; 1.5 h, 90min, read-out: cm.cam.90min POD): 27.6 µM
minimal effective concentration ([1]; 1.5 h, 90min, read-out: cm.mii.90min POD): 57.2 µM
minimal effective concentration ([1]; 1.5 h, 90min, read-out: cm.mito.90min POD): 18.6 µM
minimal effective concentration ([1]; 1.5 h, 90min, read-out: cm.tc.90min POD): 33 µM
viability at 0.01 µM [1, 6]: 97.9%
activity at 0.01 µM [1, 7]: 95.9%
activity at 0.01 µM [1, 8]: 98.7%
viability at 0.01 µM [1, 9]: 98.3%
viability at 0.1 µM [1, 6]: 106%
activity at 0.1 µM [1, 7]: 91.2%
activity at 0.1 µM [1, 8]: 107%
viability at 0.1 µM [1, 9]: 106%
viability at 1 µM [1, 6]: 102%
activity at 1 µM [1, 7]: 99.8%
activity at 1 µM [1, 8]: 101%
viability at 1 µM [1, 9]: 102%
viability at 10 µM [1, 6]: 102%
activity at 10 µM [1, 7]: 78.7%
activity at 10 µM [1, 8]: 103%
viability at 10 µM [1, 9]: 102%
viability at 100 µM [1, 6]: 4.05%
activity at 100 µM [1, 7]: 55.8%
activity at 100 µM [1, 8]: 2.86%
viability at 100 µM [1, 9]: 4.37%
minimal effective concentration ([1]; 24 h, read-out: cm.cam.24hrs POD): 33 µM
minimal effective concentration ([1]; 24 h, read-out: cm.mii.24hrs POD): 5.58 µM
minimal effective concentration ([1]; 24 h, read-out: cm.mito.24hrs POD): 35.8 µM
minimal effective concentration ([1]; 24 h, read-out: cm.tc.24hrs POD): 35 µM
viability at 0.01 µM (HUVECs; [10]): 105%
activity at 0.01 µM (HUVECs; [11]): 105%
activity at 0.01 µM (HUVECs; [12]): 107%
activity at 0.01 µM (HUVECs; [13]): 98.6%
viability at 0.1 µM (HUVECs; [10]): 102%
activity at 0.1 µM (HUVECs; [11]): 102%
activity at 0.1 µM (HUVECs; [12]): 114%
activity at 0.1 µM (HUVECs; [13]): 99.1%
viability at 1 µM (HUVECs; [10]): 85.9%
activity at 1 µM (HUVECs; [11]): 85.8%
activity at 1 µM (HUVECs; [12]): 113%
activity at 1 µM (HUVECs; [13]): 104%
viability at 10 µM (HUVECs; [10]): 57.8%
activity at 10 µM (HUVECs; [11]): 31.1%
activity at 10 µM (HUVECs; [12]): 11.1%
activity at 10 µM (HUVECs; [13]): 54.2%
viability at 100 µM (HUVECs; [10]): 60%
activity at 100 µM (HUVECs; [11]): 23%
activity at 100 µM (HUVECs; [12]): 13.4%
activity at 100 µM (HUVECs; [13]): 63.6%
minimal effective concentration (HUVECs; 24 hr, read-out: huvec.cyto.24hr POD): 0.78 µM
minimal effective concentration (HUVECs; 24 hr, read-out: huvec.mito.24hr POD): 0.55 µM
minimal effective concentration (HUVECs; 24 hr, read-out: huvec.mitoint.24hr POD): 2.69 µM
minimal effective concentration (HUVECs; 24 hr, read-out: huvec.nma.24hr POD): 2.36 µM
viability at 0.01 µM (HUVECs; [14]): 105%
viability at 0.1 µM (HUVECs; [14]): 102%
viability at 1 µM (HUVECs; [14]): 85.9%
viability at 10 µM (HUVECs; [14]): 57.9%
viability at 100 µM (HUVECs; [14]): 60%
minimal effective concentration (HUVECs; 24 hrs, read-out: huvec.tc.24hrs POD): 0.78 µM
